Experiments:
Assay in all cases: relative viability (nuclei count vs DMSO), 5 days (fraction); higher = more cells survive
PC-14 = system: PC-14
Summary of the method: (§1)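 Lung cancer cell lines in 1536-well plates got either a single drug or a fixed anchor-drug dose together with five library-drug doses (not always all listed) in √10 steps, by pin tool, on the day after seeding. Nuclei were counted after 5 days, and relative viability is the treated-to-vehicle ratio of nuclei counts. Values are medians of duplicate plates.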

NCI-H1792 = system: NCI-H1792
Summary of the method: as §1

NCI-H596 = system: NCI-H596
Summary of the method: as §1

NCI-H441 = system: NCI-H441
Summary of the method: as §1

NCI-H2347 = system: NCI-H2347
Summary of the method: as §1

NCI-H1355 = system: NCI-H1355
Summary of the method: as §1

RERF-LC-KJ = system: RERF-LC-KJ
Summary of the method: as §1

LCLC-103H = system: LCLC-103H
Summary of the method: as §1

NCI-H727 = system: NCI-H727
Summary of the method: as §1

NCI-H1915 = system: NCI-H1915
Summary of the method: as §1

NCI-H322M = system: NCI-H322M
Summary of the method: as §1

NCI-H650 = system: NCI-H650
Summary of the method: as §1

NCI-H3122 = system: NCI-H3122
Summary of the method: as §1

NCI-H1563 = system: NCI-H1563
Summary of the method: as §1

NCI-H460 = system: NCI-H460
Summary of the method: as §1

NCI-H1651 = system: NCI-H1651
Summary of the method: as §1

NCI-H2170 = system: NCI-H2170
Summary of the method: as §1

NCI-H1755 = system: NCI-H1755
Summary of the method: as §1

SK-MES-1 = system: SK-MES-1
Summary of the method: as §1

NCI-H661 = system: NCI-H661
Summary of the method: as §1

SW 900 = system: SW 900
Summary of the method: as §1

LXF-289 = system: LXF-289
Summary of the method: as §1

NCI-H522 = system: NCI-H522
Summary of the method: as §1

NCI-H520 = system: NCI-H520
Summary of the method: as §1

In the case of `Clc1ccc(Nc2nnc(Cc3ccncc3)c3ccccc23)cc1` [Vatalanib] + COc1cccc2cc(-c3nc([C@H]4CC[C@H](C(=O)O)CC4)n4ncnc(N)c34)[nH]c12 [OSI-027] (partner 0.5 µM), the relative viability (PC-14; first compound 0.04 µM) is reported as 1.05, the relative viability (PC-14; first compound 0.1265 µM) is reported as 0.782 and the relative viability (PC-14; first compound 0.4 µM) is reported as 0.844. It also gave a relative viability (PC-14; first compound 1.265 µM) of 0.672, a relative viability (PC-14; first compound 4 µM) of 0.849 and a relative viability (NCI-H1792; first compound 0.04 µM) of 0.678. It also gave a relative viability (NCI-H1792; first compound 0.1265 µM) of 0.68, a relative viability (NCI-H1792; first compound 0.4 µM) of 0.704 and a relative viability (NCI-H1792; first compound 1.265 µM) of 0.707. For the same compound, the relative viability (NCI-H1792; first compound 4 µM) was 0.631, the relative viability (NCI-H596; first compound 0.04 µM) was 0.838 and the relative viability (NCI-H596; first compound 0.1265 µM) was 0.651. The relative viability (NCI-H596; first compound 0.4 µM) was 0.777, the relative viability (NCI-H596; first compound 1.265 µM) was 0.756 and the relative viability (NCI-H596; first compound 4 µM) was 0.5. It also gave a relative viability (NCI-H441; first compound 0.04 µM) of 0.581, a relative viability (NCI-H441; first compound 0.1265 µM) of 0.504 and a relative viability (NCI-H441; first compound 0.4 µM) of 0.597. The relative viability (NCI-H441; first compound 1.265 µM) was 0.658, the relative viability (NCI-H441; first compound 4 µM) was 0.713 and the relative viability (NCI-H2347; first compound 0.04 µM) was 0.397. It also gave a relative viability (NCI-H2347; first compound 0.1265 µM) of 0.391, a relative viability (NCI-H2347; first compound 0.4 µM) of 0.488 and a relative viability (NCI-H2347; first compound 1.265 µM) of 0.464. The relative viability (NCI-H2347; first compound 4 µM) was 0.364, the relative viability (NCI-H1355; first compound 0.04 µM) was 0.427 and the relative viability (NCI-H1355; first compound 0.1265 µM) was 0.431. It also gave a relative viability (NCI-H1355; first compound 0.4 µM) of 0.435, a relative viability (NCI-H1355; first compound 1.265 µM) of 0.413 and a relative viability (NCI-H1355; first compound 4 µM) of 0.34. For the same compound, the relative viability (RERF-LC-KJ; first compound 0.04 µM) was 0.657, the relative viability (RERF-LC-KJ; first compound 0.1265 µM) was 0.591 and the relative viability (RERF-LC-KJ; first compound 0.4 µM) was 0.588. The relative viability (RERF-LC-KJ; first compound 1.265 µM) was 0.549, the relative viability (RERF-LC-KJ; first compound 4 µM) was 0.564 and the relative viability (LCLC-103H; first compound 0.04 µM) was 0.496. For the same compound, the relative viability (LCLC-103H; first compound 0.1265 µM) was 0.412, the relative viability (LCLC-103H; first compound 0.4 µM) was 0.55 and the relative viability (LCLC-103H; first compound 1.265 µM) was 0.503. For the same compound, the relative viability (LCLC-103H; first compound 4 µM) was 0.457, the relative viability (NCI-H727; first compound 0.04 µM) was 0.562 and the relative viability (NCI-H727; first compound 0.1265 µM) was 0.545. For the same compound, the relative viability (NCI-H727; first compound 0.4 µM) was 0.653, the relative viability (NCI-H727; first compound 1.265 µM) was 0.562 and the relative viability (NCI-H727; first compound 4 µM) was 0.45. The relative viability (NCI-H1915; first compound 0.04 µM) was 0.673, the relative viability (NCI-H1915; first compound 0.1265 µM) was 0.636 and the relative viability (NCI-H1915; first compound 0.4 µM) was 0.632. The relative viability (NCI-H1915; first compound 1.265 µM) was 0.649, the relative viability (NCI-H1915; first compound 4 µM) was 0.61 and the relative viability (NCI-H322M; first compound 0.04 µM) was 0.573. For the same compound, the relative viability (NCI-H322M; first compound 0.1265 µM) was 0.546, the relative viability (NCI-H322M; first compound 0.4 µM) was 0.493 and the relative viability (NCI-H322M; first compound 1.265 µM) was 0.52. The relative viability (NCI-H322M; first compound 4 µM) was 0.481, the relative viability (NCI-H650; first compound 0.04 µM) was 0.627 and the relative viability (NCI-H650; first compound 0.1265 µM) was 0.49. For the same compound, the relative viability (NCI-H650; first compound 1.265 µM) was 0.491, the relative viability (NCI-H650; first compound 4 µM) was 0.523 and the relative viability (NCI-H3122; first compound 0.04 µM) was 1.13. The relative viability (NCI-H3122; first compound 0.1265 µM) was 0.982, the relative viability (NCI-H3122; first compound 1.265 µM) was 0.934 and the relative viability (NCI-H3122; first compound 4 µM) was 0.848. The relative viability (NCI-H1563; first compound 0.04 µM) was 0.735, the relative viability (NCI-H1563; first compound 0.1265 µM) was 0.677 and the relative viability (NCI-H1563; first compound 0.4 µM) was 0.827. The relative viability (NCI-H1563; first compound 1.265 µM) was 0.698, the relative viability (NCI-H1563; first compound 4 µM) was 0.738 and the relative viability (NCI-H460; first compound 0.04 µM) was 0.713. For the same compound, the relative viability (NCI-H460; first compound 0.1265 µM) was 0.703, the relative viability (NCI-H460; first compound 0.4 µM) was 0.655 and the relative viability (NCI-H460; first compound 1.265 µM) was 0.65. It also gave a relative viability (NCI-H460; first compound 4 µM) of 0.624, a relative viability (NCI-H1651; first compound 0.04 µM) of 0.751 and a relative viability (NCI-H1651; first compound 0.1265 µM) of 0.723. For the same compound, the relative viability (NCI-H1651; first compound 0.4 µM) was 0.662, the relative viability (NCI-H1651; first compound 1.265 µM) was 0.644 and the relative viability (NCI-H1651; first compound 4 µM) was 0.615. It also gave a relative viability (NCI-H2170; first compound 0.04 µM) of 0.707, a relative viability (NCI-H2170; first compound 0.1265 µM) of 0.743 and a relative viability (NCI-H2170; first compound 0.4 µM) of 0.782. For the same compound, the relative viability (NCI-H2170; first compound 1.265 µM) was 0.63, the relative viability (NCI-H2170; first compound 4 µM) was 0.769 and the relative viability (NCI-H1755; first compound 0.04 µM) was 0.82. It also gave a relative viability (NCI-H1755; first compound 0.1265 µM) of 0.747, a relative viability (NCI-H1755; first compound 0.4 µM) of 0.705 and a relative viability (NCI-H1755; first compound 1.265 µM) of 0.654. The relative viability (NCI-H1755; first compound 4 µM) was 0.634, the relative viability (SK-MES-1; first compound 0.04 µM) was 0.634 and the relative viability (SK-MES-1; first compound 0.1265 µM) was 0.588. For the same compound, the relative viability (SK-MES-1; first compound 0.4 µM) was 0.77, the relative viability (SK-MES-1; first compound 1.265 µM) was 0.578 and the relative viability (SK-MES-1; first compound 4 µM) was 0.575. For the same compound, the relative viability (NCI-H661; first compound 0.04 µM) was 0.737, the relative viability (NCI-H661; first compound 0.1265 µM) was 0.699 and the relative viability (NCI-H661; first compound 0.4 µM) was 0.709. The relative viability (NCI-H661; first compound 1.265 µM) was 0.717, the relative viability (NCI-H661; first compound 4 µM) was 0.67 and the relative viability (SW 900; first compound 0.1265 µM) was 0.531. For the same compound, the relative viability (SW 900; first compound 0.4 µM) was 0.565, the relative viability (SW 900; first compound 1.265 µM) was 0.618 and the relative viability (SW 900; first compound 4 µM) was 0.501. For the same compound, the relative viability (LXF-289; first compound 0.04 µM) was 0.824, the relative viability (LXF-289; first compound 0.1265 µM) was 0.802 and the relative viability (LXF-289; first compound 0.4 µM) was 0.858. For the same compound, the relative viability (LXF-289; first compound 1.265 µM) was 0.806, the relative viability (LXF-289; first compound 4 µM) was 0.761 and the relative viability (NCI-H522; first compound 0.04 µM) was 0.703. The relative viability (NCI-H522; first compound 0.1265 µM) was 0.677, the relative viability (NCI-H522; first compound 0.4 µM) was 0.73 and the relative viability (NCI-H522; first compound 1.265 µM) was 0.714. It also gave a relative viability (NCI-H522; first compound 4 µM) of 0.796, a relative viability (NCI-H520; first compound 0.04 µM) of 0.25 and a relative viability (NCI-H520; first compound 0.1265 µM) of 0.23. It also gave a relative viability (NCI-H520; first compound 0.4 µM) of 0.244, a relative viability (NCI-H520; first compound 1.265 µM) of 0.252 and a relative viability (NCI-H520; first compound 4 µM) of 0.224.
